Source: paper PMC4503980 (Scientific Reports, 2015)

Columns and labels:
Assay type in all cases: binding
[1] = biological target: T1, TAMRA-nNOS/PSD-95-PDZ1 interaction (Homo sapiens, UniProt P29475+P78352, V36C); assay: 'direct' FP assay, TAMRA-nNOS / PDZ1 (saturation and inhibition)
T1 construct: nNOS-PDZ (12–130, human); PDZ1 (61-151); made in house; host or cells: E. coli
Method: The assay was established by creating a fluorescent version of nNOS-PDZ by TAMRA-labelling nNOS-PDZ via an introduced cysteine residue (V36C). […] However, up to 7.3 μM no inhibition of TAMRA-nNOS/PSD-95-PDZ interactions could be measured (data not shown).
(a) Saturation curves between TAMRA-nNOS (5 nM) and PDZ1, PDZ2, and PDZ1-2 of PSD-95. […] Error bars indicate SEM based on three individual measurements.
nNOS-PDZ (12–130, human) and α-Syntrophin-PDZ (82–200, human), both comprising an N-terminal His-tag/FXa-site sequence ([…]), were likewise expressed in E. coli and purified by HisTrap chromatography followed by gel-filtration as described in details previously. To make the TAMRA-labelled nNOS-PDZ, mutant nNOS-PDZ (V36C) protein was generated by standard site-directed mutagenesis and characterized as described previously. […]
Incubation time was 10–15 minutes (room temperature), and the assay was performed in a 1 × TBS buffer (150 mM NaCl, 10 mM Tris, pH 7.4) using black flat-bottom 384-well plates (Corning Life Sciences, NY) and a Safire2 plate-reader (Tecan, Männedorf, Switzerland). […] TAMRA- and Cy5-probes were measured at excitation/emission values of 530/585 nm (bandwidth = 20 nm) and 635/670 nm (bandwidth = 15 nm), respectively. […]

[2] = biological target: T2, nNOS-PDZ/PSD-95-PDZ2 interaction (Homo sapiens, UniProt P29475); assay: 'indirect' FP assay, Cnskr2 probe / PSD-95-PDZ2 / nNOS-PDZ; conditions: for activity in indirect FP assay (nNOS-PDZ/PSD-95-PDZ2): up to 500–600 μM, Cy5-Cnskr2 5 nM / PSD-95-PDZ2 3 μM / nNOS-PDZ 5 μM
T2 construct: nNOS-PDZ (12–130, human); PDZ2 (155-249); made in house; host or cells: E. coli
Text: First we tested a series of 23 fluorescent-labelled C-terminal peptide ligands (Supplementary Table S1) derived from PDZ-interacting proteins in order to find a probe with good activity towards the PSD-95 PDZ domains and no or little activity against nNOS-PDZ (Supplementary Fig. S1). The Cnskr2 probe fulfilled these selectivity criteria and was used to generate saturation curves with PDZ2 and PDZ1-2 of PSD-95 (Fig. 4a). […] Next, fixed concentrations of TAMRA-Cnskr2, PSD-95-PDZ2/1-2, and nNOS-PDZ were applied, corresponding to the conditions at IC50 of the nNOS-PDZ inhibition curve (Fig. 4b) where sensitivity of the assay is greatest. […] Here, we used the Sapk3-peptide as it has the desired high affinity to α1-Syntrophin-PDZ and low affinity to nNOS-PDZ (Supplementary Fig. S1).
The minor increases in mP at high concentrations, 260-2900 μM, were due to fluorescence artefacts.
Similar, this assay was established with Syntrophin-PDZ and Sapk3 as probe (Fig. 4d).
In all cases, the DMSO effect on the assay was tested and found negligible.

[3] = biological target: T3, extended nNOS-PDZ (Mus musculus, UniProt Q9Z0J4); assay: ITC titration into extended nNOS-PDZ; conditions: 100 μM protein in cell, 750 μM compound in syringe, 1% DMSO, pH 6.3, 25 °C
T3 construct: nNOS-PDZ (residues 12–134, Uniprot Q9JJ30); made in house
Text: Unlike the FP experiments above, which rely on inhibition of interaction partners, the ITC method is a direct measure of binding, regardless of where it takes place on the protein.
Figure 5 ITC curves. Plots showing titrations into PDZ domains fitted to a one-site model.
For isothermal titration calorimetry (ITC) and NMR, PSD-95-PDZ2 (157–249, human) was expressed and purified as described previously. The sequence for the extended Mus musculus nNOS-PDZ (residues 12–134, Uniprot Q9JJ30) was sub-cloned into a pETM11 vector using cloning sites Nco1 and Kpn1, and the protein was expressed and purified following a similar protocol to that used for the production of PSD-95-PDZ2.
All ITC experiments were carried out at 25 °C on an iTC200 Microcalorimeter (GE Healthcare) with a 200 μL cell capacity and 40 μL syringe volume. The buffer used for all solutions was 20 mM phosphate buffer at pH 6.3; each experiment consisted of an initial injection of 0.5 μL, followed by fifteen 2.39 μL injections before a final injection of 1.89 μL. […] In both cases no heat exchange was detected, confirming that there was appropriate match of buffer conditions with no indication of dilution effects. […] For the nNOS-PDZ/PSD-95-PDZ2 interaction, 100 μM PDZ2 in the cell was titrated with 750 μM nNOS-PDZ. […] All data was analysed using the Origin®7 software programme.

T2 sequence (P29475 12-130): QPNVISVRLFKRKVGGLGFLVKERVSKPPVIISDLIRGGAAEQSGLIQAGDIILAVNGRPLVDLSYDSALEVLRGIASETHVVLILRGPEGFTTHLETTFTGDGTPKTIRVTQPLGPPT
T3 sequence (Q9Z0J4 12-134): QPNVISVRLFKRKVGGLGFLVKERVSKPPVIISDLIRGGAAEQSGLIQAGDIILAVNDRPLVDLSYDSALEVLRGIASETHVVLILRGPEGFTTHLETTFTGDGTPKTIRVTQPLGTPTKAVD

SMILES | inhibition of TAMRA-nNOS/PDZ1 interaction ([1]; up to 7.3 μM (fluorescence artefacts above), data not shown) | activity in indirect FP assay (nNOS-PDZ/PSD-95-PDZ2) [2] | binding to extended nNOS-PDZ by ITC [3] | inhibition of TAMRA-nNOS/PDZ1 interaction ([1]; tested at up to 1200 μM, TAMRA-nNOS 5 nM, PDZ1 7.5 μM) | rise in FP signal (inhibition of nNOS-PDZ/PSD-95-PDZ2) ([2]; ZL006 0-2900 μM, TAMRA-Cnskr2 5 nM / PSD-95-PDZ2 […] / nNOS-PDZ 1 μM)
Oc1c(Cl)cc(Cl)cc1CNc1ccc2[nH]nnc2c1 [IC87201, 2-((1H-Benzo[d][1–3]triazol-5-ylamino)methyl)-4-6-dichlorophenol] | no inhibition | no activity | does not bind |  | 
O=C(O)c1ccc(NCc2cc(Cl)cc(Cl)c2O)cc1O [ZL006, 4-((3,5-Dichloro-2-hydroxybenzyl)amino)-2-hydroxybenzoic acid] |  | no activity | binding was too weak to produce a binding isotherm | no activity | no rise in FP signal
